Earlier results on 1 compound are cited in patent US20220023282A1 (priority 2018, published 2022).

In this data set the test system is Mycobacterium tuberculosis isolates. The note with it: variety of Mycobacterium tuberculosis isolates, regardless of resistance to other anti-TB drugs; cited from earlier work.

Structures are written as SMILES.

For the compound `COc1nc2ccc(Br)cc2cc1[C@@H](c1ccccc1)[C@@](O)(CCN(C)C)c1cccc2ccccc12` [bedaquiline, (1R,2S)-1-(6-bromo-2-methoxyquinolin-3-yl)-4-(dimethylamino)-2-(naphthalen-1-yl)-1-phenylbutan-2-ol], the “Minimum Inhibitory Concentration (MIC) 99” value is 0.01 to 0.1 µg/mL.
